As usually defined, the IC50 is the concentration that inhibits the measured activity by half.

Drawing on patent US20240270751A1, “Pyrazolopyridinone Compounds” (BeiGene Ltd., priority 2021, published 2024), this text covers IC50 for 31 molecules.

Assay [1] addresses DGKζ (Homo sapiens (Human), UniProt Q13574). Put plainly: Biochemical DGK IC50 assay, DGKζ ADP-Glo assay. The conditions noted are these: 0.5 nM enzyme, 140 μM ATP, 80 μM DAG; read-out: DGKζ ADP-Glo assay IC50. The method, then: (§1) Enzymatic reactions of DGKζ, DGKα and DGKδ were performed using ADP-Glo assay with lipid micelle substrate. […] Full length DGKα (D21-10BG, SignalChem) and full length DGKδ (D23-10G, SignalChem) were purchased. Lipid micelle was prepared by dissolving DAG (Sigma, 317505-10MG) and PS (Sigma, P7769-100MG) with chloroform which was furtherly removed by rotary evaporation. The resulted product was resuspended in buffer containing 25 mM HEPES pH 7.0, 0.5 mM EDTA and 160 mM Octyl β-D glucopyranoside by vigorous mixing and ultrasonic (IID, Scientz).
(§2) The ranges of compounds final concentration were 1.55˜10000 nM or 23.3˜150000 nM. 3 μL 2× enzyme solution was added to wells.
Human His-TEV-DGK-zeta-pFastBac1 and human baculovirus samples was generated using the Bac-to-Bac baculovirus expression system (Invitrogen) according to the manufacturer's protocol. The DNA used for expression of DGK-zeta, have SEQ ID Nos: 1. Baculovirus amplification was achieved using infected SF9 cells at 1:2000 virus/cells ratios, and grown for 96 hours at 27° C. post-transfected.
The expression scaled up for each protein was carried out in the […] from CORNING. 4 L of 3×10^6 cells/mL Sf9 cells (Expression System, Invitrogen) grown in SF900™ II SFM insect medium (Expression System) was infected with virus stock at 1:200 virus/cells ratio, and grown for 48 hours at 27° C. post-transfection. The infected cell culture was harvested by centrifugation at 6000 rpm for 15 min 4° C. in a SORVALL LYNX6000 centrifuge. The cell pellets were stored at −80° C.
Full length human DGKζ produced as described above, was purified from Sf9 baculovirus-infected insect cell paste. The cells were lysed using sonication method, and the lysates were clarified by centrifugation.
A general note: ADP-Glo first removes unused ATP, then detects ADP through luciferase.

Assay [2] addresses DGKα (Homo sapiens (Human), UniProt P23743). As to the kind of experiment: Biochemical DGK IC50 assay, DGKα ADP-Glo assay. The settings on record: 7.5 nM enzyme, 140 μM ATP, 80 μM DAG. The protocol: as §1, §2

Sequence of DGKα (P23743 whole entry): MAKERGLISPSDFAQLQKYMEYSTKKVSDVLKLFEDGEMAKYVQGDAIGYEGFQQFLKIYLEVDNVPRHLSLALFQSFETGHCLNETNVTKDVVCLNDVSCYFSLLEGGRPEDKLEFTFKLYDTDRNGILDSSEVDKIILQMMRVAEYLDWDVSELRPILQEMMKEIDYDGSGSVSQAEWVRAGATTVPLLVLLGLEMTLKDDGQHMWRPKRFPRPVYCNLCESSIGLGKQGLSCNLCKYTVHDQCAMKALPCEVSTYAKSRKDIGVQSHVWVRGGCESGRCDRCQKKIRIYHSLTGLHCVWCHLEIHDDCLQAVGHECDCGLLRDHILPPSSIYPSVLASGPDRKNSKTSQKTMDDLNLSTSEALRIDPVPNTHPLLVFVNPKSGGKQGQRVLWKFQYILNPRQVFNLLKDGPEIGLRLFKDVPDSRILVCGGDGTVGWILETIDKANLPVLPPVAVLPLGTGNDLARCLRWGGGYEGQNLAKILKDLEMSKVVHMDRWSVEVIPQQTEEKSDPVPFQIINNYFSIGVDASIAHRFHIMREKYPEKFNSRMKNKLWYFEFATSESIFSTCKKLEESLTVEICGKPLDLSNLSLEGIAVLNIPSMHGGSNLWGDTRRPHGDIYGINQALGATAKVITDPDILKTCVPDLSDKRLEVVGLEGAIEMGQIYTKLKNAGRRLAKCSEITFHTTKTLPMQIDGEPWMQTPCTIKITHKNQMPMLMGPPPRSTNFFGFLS
Sequence of DGKζ (Q13574 other isoform, or with tags, fused parts or gaps): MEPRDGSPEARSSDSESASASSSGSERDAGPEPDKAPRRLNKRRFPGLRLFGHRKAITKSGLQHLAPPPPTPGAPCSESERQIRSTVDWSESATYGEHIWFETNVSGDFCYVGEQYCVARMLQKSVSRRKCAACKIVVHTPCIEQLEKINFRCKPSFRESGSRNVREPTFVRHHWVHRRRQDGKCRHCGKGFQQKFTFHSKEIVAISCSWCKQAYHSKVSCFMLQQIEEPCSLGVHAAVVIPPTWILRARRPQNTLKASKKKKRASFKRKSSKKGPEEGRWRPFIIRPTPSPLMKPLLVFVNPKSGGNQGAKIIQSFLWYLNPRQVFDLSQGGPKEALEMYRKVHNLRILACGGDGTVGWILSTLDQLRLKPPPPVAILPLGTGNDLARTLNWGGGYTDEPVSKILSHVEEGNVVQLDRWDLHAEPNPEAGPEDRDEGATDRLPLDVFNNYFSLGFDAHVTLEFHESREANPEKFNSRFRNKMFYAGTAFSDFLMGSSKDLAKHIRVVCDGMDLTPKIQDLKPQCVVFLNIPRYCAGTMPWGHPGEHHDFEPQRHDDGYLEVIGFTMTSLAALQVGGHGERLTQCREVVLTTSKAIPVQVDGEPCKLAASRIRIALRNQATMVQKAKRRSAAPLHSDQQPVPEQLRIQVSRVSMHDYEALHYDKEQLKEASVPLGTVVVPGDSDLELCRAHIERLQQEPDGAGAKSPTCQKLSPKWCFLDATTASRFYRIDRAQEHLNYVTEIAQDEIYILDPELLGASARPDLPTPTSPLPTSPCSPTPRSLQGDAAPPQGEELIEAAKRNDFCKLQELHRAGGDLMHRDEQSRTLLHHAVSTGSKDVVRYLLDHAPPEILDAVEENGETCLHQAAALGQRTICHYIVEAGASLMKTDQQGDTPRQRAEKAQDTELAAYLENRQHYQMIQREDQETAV

As for `CC[C@H]1CN(C(C)c2ccc3nccnc3c2)[C@H](CC)CN1c1cc(=O)n(C)c2cn(CC#N)nc12` (mixture of isomers) [Compound A28, 2-(7-((2S,5R)-2,5-diethyl-4-(1-(quinoxalin-6-yl)ethyl)piperazin-1-yl)-4-methyl-5-oxo-4,5-dihydro-2H-pyrazolo[4,3-b]pyridin-2-yl)acetonitrile], the half-inhibitory concentration (IC50) was 6.7 nM in assay [1] and 310 nM in assay [2].

On to `Cc1cc2cc(C(C)N3C[C@H](C)N(c4cc(=O)n(C)c5cn(CC#N)nc45)C[C@H]3C)ccc2cn1` (mixture of isomers) [Compound A304, 2-(7-((2S,5R)-2,5-dimethyl-4-(1-(3-methylisoquinolin-6-yl)ethyl)piperazin-1-yl)-4-methyl-5-oxo-4,5-dihydro-2H-pyrazolo[4,3-b]pyridin-2-yl)acetonitrile], for which the figures for the concentration for half-maximal inhibition (IC50) in assay [1] and in assay [2] were 763 nM and 3660 nM, respectively.

Take `Cc1nc2ccc(C(C)N3C[C@H](C)N(c4cc(=O)n(C)c5cn(CC#N)nc45)C[C@H]3C)cn2n1` (mixture of isomers) [Compound A321]: the concentration for half-maximal inhibition (IC50) in assay [2] is > 150000 nM.

As for `CC(c1ccc2nccnc2c1)N1C[C@H](C)N(c2cc(=O)n(C)c3cn(CC#N)nc23)C[C@H]1C` (mixture of isomers) [Compound A2, 2-(7-((2S,5R)-2,5-dimethyl-4-(1-(quinoxalin-6-yl)ethyl)piperazin-1-yl)-4-methyl-5-oxo-4,5-dihydro-2H-pyrazolo[4,3-b]pyridin-2-yl)acetonitrile], the half-inhibitory concentration (IC50) in assay [1] came to 71 nM; in assay [2], 7700 nM.

Turning to `CC#CCn1cc2c(n1)c(N1C[C@@H](C)N(C(C)c3ccc4nccnc4c3)C[C@@H]1C)cc(=O)n2C` (mixture of isomers) [Compound A22, 2-(but-2-yn-1-yl)-7-((2S,5R)-2,5-dimethyl-4-(1-(quinoxalin-6-yl)ethyl)piperazin-1-yl)-4-methyl-2,4-dihydro-5H-pyrazolo[4,3-b]pyridin-5-one], the values for the IC50 in assay [1] and in assay [2] were 94 nM and 200 nM, respectively.

Consider `CC[C@@H]1CN(c2cc(=O)n(C)c3cn(CC#N)nc23)[C@@H](C)CN1C(C)c1ccc2nccnc2c1` (mixture of isomers) [Compound A97, 2-(7-((2S,5R)-5-ethyl-2-methyl-4-(1-(quinoxalin-6-yl)ethyl)piperazin-1-yl)-4-methyl-5-oxo-4,5-dihydro-2H-pyrazolo[4,3-b]pyridin-2-yl)acetonitrile], for which the results for the IC50 in assay [1] and in assay [2] were 1 nM and 999 nM, respectively.

Regarding `CC[C@H]1CN(C(C)c2ccc(C(F)(F)F)cc2)[C@H](CC)CN1c1cc(=O)n(C)c2cn(CC#N)nc12` (mixture of isomers) [Compound A103, 2-(7-((2S,5R)-2,5-diethyl-4-(1-(4-(trifluoromethyl)phenyl)ethyl)piperazin-1-yl)-4-methyl-5-oxo-4,5-dihydro-2H-pyrazolo[4,3-b]pyridin-2-yl)acetonitrile], the concentration for half-maximal inhibition (IC50) is 107 nM in assay [1] and 208 nM in assay [2].

Regarding `CC[C@H]1CN(C(C)c2ccc3nccnc3c2)[C@H](CC)CN1c1cc(=O)n(C)c2cn(CC#N)nc12` (single isomer, unassigned) [Compound A28a], the 50% inhibitory concentration (IC50) stood at 7.6 nM in assay [1] and 490 nM in assay [2].

Take `CC[C@H]1CN(C(C)c2ccc3nccnc3c2)[C@H](CC)CN1c1cc(=O)n(C)c2cn(CC#N)nc12` (single isomer, unassigned) [Compound A28b]: the concentration for half-maximal inhibition (IC50) in assay [1] was determined as 463 nM; in assay [2] it was 983 nM.

`COCc1cc(F)ccc1C(C)N1C[C@H](C)N(c2cc(=O)n(C)c3cn(CC#N)nc23)C[C@H]1C` (single isomer, unassigned) [Compound A29b]: the concentration for half-maximal inhibition (IC50) in assay [1] is 57 nM; in assay [2] it was 4060 nM.

As for `CC(c1ccc2c(c1)OCCO2)N1C[C@H](C)N(c2cc(=O)n(C)c3cn(CC#N)nc23)C[C@H]1C` (single isomer, unassigned) [Compound A43a], the IC50 in assay [1] is 5080 nM; in assay [2], 37700 nM.

On to `CC(c1ccc2c(c1)OCCO2)N1C[C@H](C)N(c2cc(=O)n(C)c3cn(CC#N)nc23)C[C@H]1C` (single isomer, unassigned) [Compound A43b], for which the IC50 was 50 nM in assay [1] and 6570 nM in assay [2].

For the molecule `CC(c1ccc2c(c1)OC(C)(C)CO2)N1C[C@H](C)N(c2cc(=O)n(C)c3cn(CC#N)nc23)C[C@H]1C` (single isomer, unassigned) [Compound A46f], the figures for the concentration for half-maximal inhibition (IC50) in assay [1] and in assay [2] were 2140 nM and 59600 nM, respectively.

With `CC[C@H]1CN(C(C)c2ccc(C(F)(F)F)cc2F)[C@H](CC)CN1c1cc(=O)n(C)c2cn(CC#N)nc12` (single isomer, unassigned) [Compound A69a], the IC50 in assay [1] came to 25 nM; in assay [2], 130 nM.

Consider `CC[C@H]1CN(C(C)c2ccc(C(F)(F)F)cc2F)[C@H](CC)CN1c1cc(=O)n(C)c2cn(CC#N)nc12` (single isomer, unassigned) [Compound A69b], for which the IC50 came out at 4900 nM in assay [1] and 3000 nM in assay [2].

Take `CC[C@H]1CN(C(C)c2ccc(F)cc2OC)[C@H](CC)CN1c1cc(=O)n(C)c2cn(CC#N)nc12` (single isomer, unassigned) [Compound A71a]: the IC50 in assay [1] amounted to 2100 nM; in assay [2], 42000 nM.

For `CC[C@H]1CN(C(C)c2ccc(F)cc2OC)[C@H](CC)CN1c1cc(=O)n(C)c2cn(CC#N)nc12` (single isomer, unassigned) [Compound A71b], the IC50 in assay [1] was determined as 130 nM; in assay [2], 40000 nM.

Turning to `CC[C@H]1CN(C(C)c2ccc(F)cn2)[C@H](CC)CN1c1cc(=O)n(C)c2cn(CC#N)nc12` (single isomer, unassigned) [Compound A74a], the values for the IC50 in assay [1] and in assay [2] were 224 nM and 2.2 nM, respectively.

Regarding `CC[C@H]1CN(C(C)c2ccc(F)cn2)[C@H](CC)CN1c1cc(=O)n(C)c2cn(CC#N)nc12` (single isomer, unassigned) [Compound A74b], the figures for the IC50 in assay [1] and in assay [2] were 5450 nM and 187 nM, respectively.

As to `CC[C@H]1CN([C@H](C)c2ncccc2OC)[C@H](CC)CN1c1cc(=O)n(C)c2cn(CC#N)nc12` (single isomer, unassigned) [Compound A92b], the 50% inhibitory concentration (IC50) in assay [2] was > 10000 nM.

For `CC[C@@H]1CN(c2cc(=O)n(C)c3cn(CC#N)nc23)[C@@H](C)CN1C(C)c1ccc2nccnc2c1` (single isomer, unassigned) [Compound A97a], the IC50 in assay [1] turned out to be 8.6 nM; in assay [2] it was 3380 nM.

Regarding `CC[C@@H]1CN(c2cc(=O)n(C)c3cn(CC#N)nc23)[C@@H](C)CN1C(C)c1ccc2nccnc2c1` (single isomer, unassigned) [Compound A97b], the IC50 in assay [1] amounted to 1610 nM; in assay [2], 5120 nM.

Regarding `CC[C@H]1CN(C(C)c2ccc3nccnc3c2)[C@H](C)CN1c1cc(=O)n(C)c2cn(CC#N)nc12` (single isomer, unassigned) [Compound A98a], the IC50 turned out to be 15 nM in assay [1] and 1060 nM in assay [2].

Turning to `CC[C@H]1CN(C(C)c2ccc3nccnc3c2)[C@H](C)CN1c1cc(=O)n(C)c2cn(CC#N)nc12` (single isomer, unassigned) [Compound A98b], the IC50 is 1760 nM in assay [1] and > 10000 nM in assay [2].

For the molecule `CC[C@H]1CN(C(C)c2ccc(C(F)(F)F)cc2)[C@H](CC)CN1c1cc(=O)n(C)c2cn(CC#N)nc12` (single isomer, unassigned) [Compound A103a], the results for the IC50 in assay [1] and in assay [2] were 241 nM and 403 nM, respectively.

Turning to `CC[C@H]1CN(C(C)c2ccc(C(F)(F)F)cc2)[C@H](CC)CN1c1cc(=O)n(C)c2cn(CC#N)nc12` (single isomer, unassigned) [Compound A103b], the IC50 in assay [1] was 2690 nM; in assay [2], 809 nM.

As to `CC[C@H]1CN(C(C)c2ccccc2OC)[C@H](CC)CN1c1cc(=O)n(C)c2cn(CC#N)nc12` (single isomer, unassigned) [Compound A106a], the values for the IC50 in assay [1] and in assay [2] were 2190 nM and > 10000 nM, respectively.

As for `CC[C@H]1CN(C(C)c2ccccc2OC)[C@H](CC)CN1c1cc(=O)n(C)c2cn(CC#N)nc12` (single isomer, unassigned) [Compound A106b], the IC50 in assay [1] was 183 nM; in assay [2] it was > 10000 nM.

Consider `CC[C@H]1CN([C@H](C)c2ccc3nccnc3c2)[C@H](CC)CN1c1cc(=O)n(C(C)C)c2cn(CC#N)nc12` (single isomer, unassigned) [Compound A190b], for which the concentration for half-maximal inhibition (IC50) in assay [2] is > 10000 nM.

Take `CC[C@H]1CN([C@H](C)c2nc(Cl)cn2CC)[C@H](CC)CN1c1cc(=O)n(C)c2cn(CC#N)nc12` (single isomer, unassigned) [Compound A191b]: the 50% inhibitory concentration (IC50) in assay [2] is > 10000 nM.

On to `COc1cc(F)ccc1C(C)N1C[C@H](C)N(c2cc(=O)n(C)c3cn(CC#N)nc23)C[C@H]1C` (stereo partly drawn) [Compound A248, 2-(7-((2S,5R)-4-(1-(2-omethoxy-4-fluorophenyl)ethyl)-2,5-dimethylpiperazin-1-yl)-4-methyl-5-oxo-4,5-dihydro-2H-pyrazolo[4,3-b]pyridin-2-yl)acetonitrile], for which, in assay [2], the concentration for half-maximal inhibition (IC50) is > 10000 nM.
